{"source": "patent US20240299499A1", "about": "“Therapeutic Peptide Formulations” (Eli Lilly and Company, priority 2020, published 2024)", "format_in_all_cases": "physicochemical", "key": {"[1]": {"assay": "Solution formulation feasibility study: covalent aggregates by SEC", "conditions": "pH values of 7.0-8.5", "procedure": "Solutions were filtered through […] PVDF filters. In a laminar flow hood, the solutions were filled into glass vials. Vials were capped, and stored at 5° C., 25° C. and 30° C. Samples were withdrawn and submitted for testing as follows: (a) initial testing; (b) two weeks; and (c) one month. The formation of covalent aggregates was measured by size-exclusion chromatography (SEC)."}, "[2]": {"assay": "Solubility of Compound 1 at 25° C. between pH 5.0 and pH 7.0 (UV-Vis at 280 nm)", "procedure": "All solutions comprised 10 mM tris (1.21 g/L) and 0.05% EDTA (0.5 g/L). The solution pH was titrated using either 1N hydrochloric acid or concentrated tris base stock solution.\nThe concentration of Compound 1 was measured at 280 nm by a UV-Vis spectrophotometer (SoloVPE). UV-Vis spectrophotometer is commonly used for quantification of proteins or peptides in solution. A characteristic UV absorption spectrum around 280 nm is predominately from the aromatic amino acids such as tryptophan (Trp, W) and tyrosine (Tyr, Y). When the molar extinction coefficient of the protein or peptide is known, the Beer-Lambert law is used to accurately quantitate amount of protein or peptide by UV absorbance, assuming the molecule contains no UV-absorbing non-proteinaceous components such as bound nucleotide cofactors, heme, or iron-sulfur centers. Compound 1 has tyrosine amino acid residues at positions 10 and 13 and has a tryptophan amino acid residue at position 25 and has an extinction coefficient of 1.86 mL·mg^−1·cm^−1 (as calculated by the Pace Method). Measuring the peptide concentration at different pH conditions by this method is appropriate for Compound 1."}, "[3]": {"assay": "Effect of antioxidants: chemical stability by RP-HPLC (total impurities, Trp oxidation)", "conditions": "refrigerated condition", "procedure": "Solutions were filtered through […] PVDF filters. In a laminar flow hood, the solutions were filled into glass vials. Vials were capped, and stored at 5° C., 25° C. and 30° C. Four formulations comprising Compound 1 were prepared to evaluate the stabilization efficacy of antioxidants, namely, EDTA, citrate and methionine. […] Subsequently, a fifth sample containing higher concentration of methionine (100 mM vs. 10 mM) was prepared to evaluate the effect of methionine concentration (Table 15, Lot No. 26). Samples were prepared, and stored at 5° C., 25° C. and 30° C. for up to 3 months. At appropriate times, stability-indicating assays were performed to assess the physical and chemical stability.\nAt 25° C. and 30° C., there are significant differences in stabilization efficacy."}}, "note": "Where two headings read alike, the source gives them in different places."}
{"compound": "CC(C)C[C@H](NC(=O)[C@H](CC(C)C)NC(=O)[C@H](Cc1c[nH]c2ccccc12)NC(=O)[C@H](CCC(=O)O)NC(=O)[C@@H](NC(=O)[C@H](Cc1ccccc1)NC(=O)[C@H](CCC(=O)O)NC(=O)[C@H](CCCCNC(=O)COCCOCCNC(=O)COCCOCCNC(=O)CC[C@H](NC(=O)CCCCCCCCCCCCCCCCCCC(=O)O)C(=O)O)NC(=O)[C@H](C)NC(=O)[C@H](CCCCN)NC(=O)[C@H](CCCCN)NC(=O)[C@H](CCC(=O)O)NC(=O)[C@H](CC(=O)O)NC(=O)[C@H](CC(C)C)NC(=O)[C@H](Cc1ccc(O)cc1)NC(=O)[C@H](CCCCN)NC(=O)[C@H](CO)NC(=O)[C@H](Cc1ccc(O)cc1)NC(=O)[C@H](CC(=O)O)NC(=O)[C@H](CO)NC(=O)[C@@H](NC(=O)[C@H](Cc1ccccc1)NC(=O)[C@@H](NC(=O)CNC(=O)[C@H](CCC(N)=O)NC(=O)C(C)(C)NC(=O)[C@@H](N)Cc1c[nH]cn1)[C@@H](C)O)[C@@H](C)O)C(C)C)C(=O)N[C@@H](CCC(=O)O)C(=O)NCC(=O)NCC(=O)N1CCC[C@H]1C(=O)N[C@@H](CO)C(=O)N[C@@H](CO)C(=O)NCC(N)=O", "note": "[Compound 1]", "values": [{"measurement": "stability in certain formulations", "setting": "[1]", "value": "sub-optimal stability"}, {"measurement": "solubility", "setting": "[2]; 10 mM tris buffer with 0.05% EDTA, aqueous buffer, Solution pH 6.16, 10 mM tris and 0.05% EDTA, 25° C., read-out: Compound 1 concentration in solution", "value": 14.5, "unit": "mg/mL"}, {"measurement": "solubility", "setting": "[2]; 10 mM tris buffer with 0.05% EDTA, aqueous buffer, Solution pH 6.84, 10 mM tris and 0.05% EDTA, 25° C., read-out: Compound 1 concentration in solution", "value": 44.6, "unit": "mg/mL"}, {"measurement": "Compound 1 concentration in solution", "setting": "[2]; Solution pH 5.31, 10 mM tris and 0.05% EDTA, 25° C.", "value": 0.00, "unit": "mg/mL"}, {"measurement": "solubility", "setting": "[2]; lower pH values (e.g. pH 5.0 to 6.5)", "value": "sub-optimal solubility"}, {"measurement": "solubility (change with pH)", "setting": "[2]; pH increased from 5.3 to 6.8", "value": "increased significantly"}, {"measurement": "solubility by extrapolation of the data", "setting": "[2]; pH values of 7.0 and above", "value": "higher"}, {"measurement": "chemical degradation by RP-HPLC", "setting": "[3]", "value": "not substantial"}]}
